Test results as given in patent US9828379B2 (priority 2013, dated 2017).

Legend:
[1] = target: T1, Mouse brain MAGL (Mus musculus, UniProt O35678); test: Mouse brain proteomes from inhibitor treated mice (oral gavage, ABPP analysis); format: in vivo; conditions: p.o., sacrificed 4 h following administration
T1 construct: from tissue; host or cells: brain of wild-type C57Bl/6J mice dosed by oral gavage
T1 sequence (O35678 1-303): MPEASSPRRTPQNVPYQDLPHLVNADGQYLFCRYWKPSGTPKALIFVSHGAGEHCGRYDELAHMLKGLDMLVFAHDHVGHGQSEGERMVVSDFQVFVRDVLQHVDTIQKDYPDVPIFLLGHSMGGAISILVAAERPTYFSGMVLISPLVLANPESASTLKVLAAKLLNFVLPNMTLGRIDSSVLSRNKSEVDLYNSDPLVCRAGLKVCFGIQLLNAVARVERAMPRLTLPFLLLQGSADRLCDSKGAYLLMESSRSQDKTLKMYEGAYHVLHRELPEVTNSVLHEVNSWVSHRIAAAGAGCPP
Method: After 30 min, FP—Rh (1.0 μL, 50 μM in DMSO) was added and the mixture was incubated for another 30 min at 37° C. Reactions were quenched with SDS loading buffer (50 μL-4×) and run on SDS-PAGE. Following gel imaging, serine hydrolase activity was determined by measuring fluorescent intensity of gel bands corresponding to MAGL, ABHD6 and FAAH using ImageJ 1.43 u software.
Inhibitors were administered to wild-type C57Bl/6J by oral gavage in a vehicle of polyethylene glycol. Each animal was sacrificed 4 h following administration and brain proteomes were prepared and analyzed according to previously established methods (See Niphakis, M. J., et al. (2011) ACS Chem. Neurosci. and Long, J. Z., et al. Nat. Chem. Biol. 5:37-44).

[2] = target: T2, ABHD6 (Mus musculus, UniProt Q8R2Y0); test: In vitro competitive activity-based protein profiling (Table 2, % inhibition at 1 μM); format: biochemical; conditions: read-out: % Inhibition at 1 μM ABHD6
T2 sequence (Q8R2Y0 1-336): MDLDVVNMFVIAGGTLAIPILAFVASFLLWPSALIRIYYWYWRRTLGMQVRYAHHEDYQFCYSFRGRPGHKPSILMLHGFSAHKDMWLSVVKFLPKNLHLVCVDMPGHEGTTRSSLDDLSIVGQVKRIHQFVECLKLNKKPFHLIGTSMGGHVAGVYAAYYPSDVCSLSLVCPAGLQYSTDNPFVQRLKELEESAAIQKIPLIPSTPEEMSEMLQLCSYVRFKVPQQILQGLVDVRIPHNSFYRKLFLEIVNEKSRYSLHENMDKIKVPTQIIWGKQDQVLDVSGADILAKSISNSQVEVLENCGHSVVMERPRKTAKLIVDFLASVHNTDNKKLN

[3] = target: T3, FAAH (Mus musculus, UniProt O08914); test: as above; format: biochemical; conditions: read-out: % Inhibition at 1 μM FAAH
T3 sequence (O08914 1-579): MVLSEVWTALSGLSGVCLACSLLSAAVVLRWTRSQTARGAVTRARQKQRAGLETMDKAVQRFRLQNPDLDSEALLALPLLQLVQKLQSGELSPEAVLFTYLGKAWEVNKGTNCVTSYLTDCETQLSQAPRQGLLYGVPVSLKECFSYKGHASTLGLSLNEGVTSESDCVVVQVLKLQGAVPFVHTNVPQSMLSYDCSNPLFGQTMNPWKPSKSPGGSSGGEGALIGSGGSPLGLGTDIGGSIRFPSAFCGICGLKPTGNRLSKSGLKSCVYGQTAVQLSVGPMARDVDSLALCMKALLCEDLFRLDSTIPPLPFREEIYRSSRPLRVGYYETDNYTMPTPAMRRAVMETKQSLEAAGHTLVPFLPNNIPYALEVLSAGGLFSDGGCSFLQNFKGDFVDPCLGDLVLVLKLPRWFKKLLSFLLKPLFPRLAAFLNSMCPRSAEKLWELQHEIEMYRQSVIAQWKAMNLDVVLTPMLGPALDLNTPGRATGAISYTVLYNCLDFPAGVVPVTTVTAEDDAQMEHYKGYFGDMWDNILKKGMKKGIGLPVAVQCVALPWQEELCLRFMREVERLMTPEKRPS

[4] = target: T4, MAGL (Mus musculus, UniProt O35678); test: biochemical; conditions: mouse; in vitro competitive ABPP; read-out: Mouse (IC50 value, nM) MAGL
T4 sequence (O35678 1-303): T1 sequence (O35678 1-303)

[5] = target: T4, MAGL; test: In vitro competitive activity-based protein profiling (Table 2, % inhibition at 1 μM); format: biochemical; conditions: read-out: % Inhibition at 1 μM MAGL
Method: After 30 min, FP—Rh (1.0 μL, 50 μM in DMSO) was added and the mixture was incubated for another 30 min at 37° C. Reactions were quenched with SDS loading buffer (50 μL-4×) and run on SDS-PAGE.
Cell lysates were diluted with mock proteomes for use in competitive ABPP experiments.

[6] = target: T2, ABHD6; test: biochemical; conditions: in vitro competitive ABPP
[7] = target: T3, FAAH; test: biochemical; conditions: in vitro competitive ABPP

Structure (SMILES)	inhibition at 5 mg/kg [1] [%]	inhibition at 1 µM [2] [%]	inhibition at 1 µM [3] [%]	IC50 [4] [nM]	inhibition at 1 µM [5] [%]	IC50 [6] [nM]	IC50 [7] [nM]
Cc1ccc(CN2CC3CN(C(=O)OC(C(F)(F)F)C(F)(F)F)CC3C2)c(-c2ccccc2)c1 (stereo not drawn) [Example 207, 1,1,1,3,3,3-hexafluoropropan-2-yl 5-((5-methyl-[1,1′-biphenyl]-2-yl)methyl)hexahydropyrrolo[3,4-c]pyrrole-2(1H)-carboxylate]	≥ 75	< 25	< 25	100 to 1000	> 75	1000 to 10000	1000 to 10000
O=C(OC(C(F)(F)F)C(F)(F)F)N1CC2CN(Cc3ccc(Cl)cc3N3CCC4(CCNC4=O)CC3)CC2C1 (stereo not drawn) [Example 38, 1,1,1,3,3,3-Hexafluoropropan-2-yl 5-[(4-chloro-2-[1-oxo-2,8-diazaspiro[4.5]decan-8-yl]phenyl)methyl]-octahydropyrrolo[3,4-c]pyrrole-2-carboxylate]	≤ 25	< 25	< 25	< 100	> 75	1000 to 10000	> 10000
CS(=O)(=O)N1CCN(c2cc(Cl)ccc2CN2CC3CN(C(=O)OC(C(F)(F)F)C(F)(F)F)CC3C2)CC1 (stereo not drawn) [Example 36, 1,1,1,3,3,3-Hexafluoropropan-2-yl 5-[[4-chloro-2-(4-methanesulfonylpiperazin-1-yl)phenyl]methyl]-octahydropyrrolo[3,4-c]pyrrole-2-carboxylate]	25 to 75	25 to 75	< 25	< 100	> 75	100 to 1000	1000 to 10000
O=C(OC(C(F)(F)F)C(F)(F)F)N1CC2CN(Cc3cccc(Cl)c3N3CCC4(CCOC4)C3)CC2C1 (stereo not drawn) [Example 42, 1,1,1,3,3,3-Hexafluoropropan-2-yl 5-[(3-chloro-2-[2-oxa-7-azaspiro[4.4]nonan-7-yl]phenyl)methyl]-octahydropyrrolo[3,4-c]pyrrole-2-carboxylate]	25 to 75	< 25	< 25	< 100	> 75	1000 to 10000	1000 to 10000
O=C(OC(C(F)(F)F)C(F)(F)F)N1CC2CN(Cc3ccc(Cl)cc3N3CCC(C(=O)N4CCCC4)CC3)CC2C1 (stereo not drawn) [Example 37, 1,1,1,3,3,3-Hexafluoropropan-2-yl 5-[(4-chloro-2-[4-[(pyrrolidin-1-yl)carbonyl]piperidin-1-yl]phenyl)methyl]-octahydropyrrolo[3,4-c]pyrrole-2-carboxylate]	≤ 25	< 25	25 to 75	< 100	> 75	1000 to 10000	1000 to 10000
CC(=O)N1CC2(CCN(c3ccccc3CN3CC4CN(C(=O)OC(C(F)(F)F)C(F)(F)F)CC4C3)C2)C1 (stereo not drawn) [Example 137, 1,1,1,3,3,3-hexafluoropropan-2-yl 5-[(2-[2-acetyl-2,6-diazaspiro[3.4]octan-6-yl]phenyl)methyl]-octahydropyrrolo[3,4-c]pyrrole-2-carboxylate]	≤ 25	< 25	< 25	< 100	> 75	1000 to 10000	1000 to 10000
